In brackets after ≈: the same amount, converted by molar mass. Where two headings read alike, the source gives them in different places.
How the values were obtained:
Type in all cases: cell-based
[1] = test system: B. catarrhalis W-0500; experiment: MIC, agar plate dilution method; conditions: Moraxella catarrhalis, W0500, 20 h, read-out: Antimicrobial activity (MIC), 37° C., 20 hours, SDA with 5% horse blood
Experimental: (§1) The effect of the first aspect of the present invention resides in the creation of a novel and useful 16-membered macrolide derivative. Antimicrobial activities of the compounds of the present invention were determined by measuring minimum inhibitory concentration (MIC). Minimum inhibitory concentration was determined by the agar plate dilution method in the following manner.
(§2) Test strains were subjected to seed culture using Sensitivity test broth (STB, Nissui Pharmaceutical) except that the strains belonging to the genus Streptococcus, Branhamella and Haemophilus were cultured on blood agar plate. A 5 μl portion of cell suspension of the test strains having about 10^6 CFU/ml was inoculated into Sensitivity disk agar (SDA, Nissui Pharmaceutical) supplemented with 5% horse blood and incubated at 37° C. for 20 hours. Then, MIC was measured. […] Antimicrobial activities in vitro of the compounds (1) and (2) are shown in Table 1, and those of the compounds (3) and (4) in Table 3.

[2] = test system: B. catarrhalis W-0506; experiment: MIC, agar plate dilution method; conditions: for MIC: Moraxella catarrhalis, W0506, 20 h, read-out: Antimicrobial activity (MIC), 37° C., 20 hours, SDA with 5% horse blood
Experimental: as §1, §2

[3] = test system: E. coli NIHJ JC-2; experiment: MIC, agar plate dilution method; conditions: 37° C., SDA with 5% horse blood; for MIC: Escherichia coli, NIHJJC2, 20 h, read-out: Antimicrobial activity (MIC)
Experimental: as §1, §2

[4] = test system: E. faecalis W-73; experiment: MIC, agar plate dilution method; conditions: Enterococcus faecalis, W73, 20 h, read-out: Antimicrobial activity (MIC)
Experimental: as §1, §2

[5] = test system: H. influenzae 9334; experiment: MIC, agar plate dilution method
Experimental: as §1, §2

[6] = test system: H. influenzae Type b; experiment: MIC, agar plate dilution method; conditions: Haemophilus influenzae
Experimental: as §1, §2

[7] = test system: K. pneumoniae PCI602; experiment: MIC, agar plate dilution method; conditions: 37° C., SDA with 5% horse blood; for MIC: Klebsiella pneumoniae, PCI602, 20 h, read-out: Antimicrobial activity (MIC)
Experimental: as §1, §2

[8] = test system: M. luteus ATCC9341; experiment: MIC, agar plate dilution method; conditions: Micrococcus luteus, ATCC9341; 37° C., 20 hours, SDA with 5% horse blood; read-out: Antimicrobial activity (MIC)
Experimental: as §1, §2

[9] = test system: S. aureus 209P JC-1; experiment: MIC, agar plate dilution method; conditions: 37° C., 20 hours, SDA with 5% horse blood; for MIC: Staphylococcus aureus, 209P, 20 h, read-out: Antimicrobial activity (MIC)
Experimental: as §1, §2

[10] = test system: S. aureus M126; experiment: MIC, agar plate dilution method; conditions: Staphylococcus aureus, 37° C., 20 hours, SDA with 5% horse blood, read-out: Antimicrobial activity (MIC)
Experimental: as §1, §2

[11] = test system: S. aureus M133; experiment: MIC, agar plate dilution method; conditions: Staphylococcus aureus, M133, 20 h, read-out: Antimicrobial activity (MIC), 37° C., 20 hours, SDA with 5% horse blood
Experimental: as §1, §2

[12] = test system: S. aureus MS15009/pMS98; experiment: MIC, agar plate dilution method; conditions: Staphylococcus aureus, MS15009/PMS98, 20 h, read-out: Antimicrobial activity (MIC), 37° C., 20 hours, SDA with 5% horse blood
Experimental: as §1, §2

[13] = test system: S. aureus MS15009/pMS99; experiment: MIC, agar plate dilution method; conditions: Staphylococcus aureus, MS15009/PMS99, 20 h, read-out: Antimicrobial activity (MIC)
Experimental: as §1, §2

[14] = test system: S. aureus MS15026; experiment: MIC, agar plate dilution method; conditions: Staphylococcus aureus, 37° C., 20 hours, SDA with 5% horse blood, read-out: Antimicrobial activity (MIC)
Experimental: as §1, §2

[15] = test system: S. aureus MS15027; experiment: MIC, agar plate dilution method; conditions: Staphylococcus aureus
Experimental: as §1, §2

[16] = test system: S. epidermidis ATCC14990; experiment: MIC, agar plate dilution method; conditions: Staphylococcus epidermidis, ATCC14990, 20 h, read-out: Antimicrobial activity (MIC), 37° C., 20 hours, SDA with 5% horse blood
Experimental: as §1, §2

[17] = test system: S. pneumoniae IP692; experiment: MIC, agar plate dilution method; conditions: Streptococcus pneumoniae, IP692, 20 h, 37° C., 20 hours, SDA with 5% horse blood; read-out: Antimicrobial activity (MIC)
Experimental: as §1, §2

[18] = test system: S. pneumoniae Type 1; experiment: MIC, agar plate dilution method; conditions: Streptococcus pneumoniae, TYPE1; 37° C., 20 hours, SDA with 5% horse blood; read-out: Antimicrobial activity (MIC)
Experimental: as §1, §2

[19] = test system: S. pyogenes Cook; experiment: MIC, agar plate dilution method; conditions: Streptococcus pyogenes; 37° C., 20 hours, SDA with 5% horse blood; read-out: Antimicrobial activity (MIC)
Experimental: as §1, §2

[20] = test system: clinically important Gram-positive bacteria; experiment: Antimicrobial activity / growth inhibition
Experimental: as §1, §2

[21] = test system: B. catarrhalis W-0400; experiment: MIC, agar plate dilution method; conditions: Moraxella catarrhalis, W0400, 20 h, read-out: Antimicrobial activity (MIC)
Experimental: as §1, §2

[22] = test system: test strains; experiment: Antimicrobial activity in vitro, test strains overall
Experimental: as §1, §2

[23] = Haemophilus influenzae, 9334, 20 h, read-out: Antimicrobial activity (MIC), 37° C., 20 hours, SDA with 5% horse blood
[24] = 20 h, read-out: Antimicrobial activity (MIC), 37° C., 20 hours, SDA with 5% horse blood
[25] = MS15027, 20 h, read-out: Antimicrobial activity (MIC), 37° C., 20 hours, SDA with 5% horse blood

Compound	MIC [1]	MIC [2]	MIC [3]	MIC [4]	MIC [5, 23]	MIC [6, 24]	MIC [7]	MIC [8]	MIC [9]	MIC [10]	MIC [11]	MIC [12]	MIC [13]	MIC [14]	MIC [15, 25]	MIC [16]	MIC [17]	MIC [18]	MIC [19]	MIC [21]	other results
CO[C@@H]1[C@@H](O[C@@H]2O[C@H](C)[C@@H](O[C@H]3C[C@@](C)(OC)[C@@H](OC(=O)CC(C)C)[C@H](C)O3)[C@H](N(C)C)[C@H]2O)[C@@H](CC=O)C[C@@H](C)[C@@H](O)/C=C/C=C/C[C@@H](C)OC(=O)C[C@H]1O [(58), 3"-O-methylleucomycin A1]	0.2 µg/mL (≈ 0.25 µM)	0.2 µg/mL (≈ 0.25 µM)	> 100 µg/mL	0.78 µg/mL (≈ 0.975 µM)	0.78 µg/mL (≈ 0.975 µM)	6.25 µg/mL (≈ 7.81 µM)	> 100 µg/mL	< 0.025 µg/mL	0.05 µg/mL (≈ 0.0625 µM)	> 100 µg/mL	0.39 µg/mL (≈ 0.488 µM)	0.2 µg/mL (≈ 0.25 µM)	> 100 µg/mL	> 100 µg/mL	0.2 µg/mL (≈ 0.25 µM)	0.2 µg/mL (≈ 0.25 µM)	0.05 µg/mL (≈ 0.0625 µM)	0.05 µg/mL (≈ 0.0625 µM)	0.05 µg/mL (≈ 0.0625 µM)	–	antimicrobial activities (in words) [20]: markedly strong microbial activities
CCCC(=O)O[C@H]1[C@H](C)O[C@@H](O[C@H]2[C@H](N(C)C)[C@@H](O)[C@H](O[C@H]3[C@@H](CC=O)C[C@@H](C)[C@@H](O)/C=C/C=C/C[C@@H](C)OC(=O)C[C@@H](O)[C@@H]3OC)O[C@@H]2C)C[C@@]1(C)OC [(33), 3"-O-methylleucomycin A5]	–	0.2 µg/mL (≈ 0.254 µM)	> 100 µg/mL	0.78 µg/mL (≈ 0.992 µM)	0.2 µg/mL (≈ 0.254 µM)	–	100 µg/mL (≈ 127 µM)	< 0.025 µg/mL	0.05 µg/mL (≈ 0.0636 µM)	> 100 µg/mL	0.2 µg/mL (≈ 0.254 µM)	0.1 µg/mL (≈ 0.127 µM)	> 100 µg/mL	> 100 µg/mL	0.2 µg/mL (≈ 0.254 µM)	0.2 µg/mL (≈ 0.254 µM)	< 0.025 µg/mL	< 0.025 µg/mL	< 0.025 µg/mL	0.1 µg/mL (≈ 0.127 µM)	MIC ([6]; 37° C., 20 hours, SDA with 5% horse blood, read-out: Antimicrobial activity (MIC)): 1.56 µg/mL (≈ 1.98 µM); antimicrobial activities compared with clarithromycin ([22]; vs clarithromycin): completely comparable to those of clarithromycin; antimicrobial activities in comparison with compound (2) ([22]; vs compound (2)): generally improved antimicrobial activities; antimicrobial activities in comparison with rokitamycin ([22]; vs rokitamycin): markedly excellent antimicrobial activities in vitro
CC[C@H]1OC(=O)[C@H](C)[C@@H](O[C@H]2C[C@@](C)(OC)[C@@H](O)[C@H](C)O2)[C@H](C)[C@@H](O[C@@H]2O[C@H](C)C[C@H](N(C)C)[C@H]2O)[C@](C)(OC)C[C@@H](C)C(=O)[C@H](C)[C@@H](O)[C@]1(C)O [CAM, clarithromycin, reference compound]	0.2 µg/mL (≈ 0.267 µM)	0.2 µg/mL (≈ 0.267 µM)	100 µg/mL (≈ 134 µM)	0.78 µg/mL (≈ 1.04 µM)	–	6.25 µg/mL (≈ 8.36 µM)	100 µg/mL (≈ 134 µM)	< 0.025 µg/mL	0.05 µg/mL (≈ 0.0668 µM)	> 100 µg/mL	–	> 100 µg/mL	> 100 µg/mL	> 100 µg/mL	> 100 µg/mL	0.1 µg/mL (≈ 0.134 µM)	< 0.025 µg/mL	< 0.025 µg/mL	< 0.025 µg/mL	0.1 µg/mL (≈ 0.134 µM)	Antimicrobial activity (MIC) ([2]; 37° C., 20 hours, SDA with 5% horse blood): 0.10 µg/mL; Antimicrobial activity (MIC) ([3]; 20 hours): 50 µg/mL; MIC ([5]; Haemophilus influenzae, 9334, 37° C., 20 hours, SDA with 5% horse blood, read-out: Antimicrobial activity (MIC)): 1.56 µg/mL (≈ 2.09 µM); Antimicrobial activity (MIC) ([7]; 20 hours): 50 µg/mL; Antimicrobial activity (MIC) [9]: 0.10 µg/mL; MIC ([15]; MS15027, 37° C., 20 hours, SDA with 5% horse blood, read-out: Antimicrobial activity (MIC)): 1.56 µg/mL (≈ 2.09 µM)
